Measurements from article PMC6037852, “Design of Diarylheptanoid Derivatives as Dual Inhibitors Against Class IIa Histone Deacetylase and β-amyloid Aggregation” (Frontiers in Pharmacology, 2018).

Tests used:
[1] = test system: SH-SY5Y cells; conditions: 100 μM; ref Luchtman et al., 2013; cited from earlier work
[2] = test system: primary rat mesencephalic neurons; design: method as in Luchtman et al., 2013; conditions: 100 μM; ref Luchtman et al., 2013; cited from earlier work
[3] = target: T1, Aβ1-42 (Homo sapiens, UniProt P05067); assay: Inhibition of Aβ1-42 self-aggregation, thioflavin-T (ThT) fluorescence assay; format: biochemical; conditions: 24 h; for IC50: read-out: Beta-Amyloid Aggregation IC50; for inhibition at 10 µM: single concentration of 10 μM, read-out: Beta-Amyloid Aggregation Inhibition (%)
T1 construct: Aβ1-42 peptides were purchased from Kelowna International Scientific Inc; purchased Kelowna International Scientific Inc
T1 sequence (P05067 672-713 limits assumed): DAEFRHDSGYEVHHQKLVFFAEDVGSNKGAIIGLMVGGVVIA
Procedure: Inhibition of Aβ1-42 self-aggregation was measured by thioflavin-T (ThT) fluorescence assay ([Hudson et al., 2009]). Aβ1-42 peptides were purchased from Kelowna International Scientific Inc. To avoid Aβ1-42 self-aggregation before the start of the experiment, Aβ1-42 peptides were dissolved in hexafluoroisopropanol (HFIP) to a concentration of 1 mM. The clear solution containing the dissolved peptide was then aliquoted in micro centrifuge tube. The solution was evaporated under vacuum to remove HFIP to give monomeric Aβ1-42. The monomeric Aβ1-42 was dissolved in NaOH(aq) (60 mM) to give a stock solution (1 mM). The Aβ1-42 stock solution was diluted with 50 mM phosphate buffer (containing 0.15 M NaCl, pH 7.4) before use. Fresh ThT stock solution was prepared by dissolving ThT (Sigma, T3516) in phosphate buffer and filtrated through […] Nylon syringe filter. The ThT stock solution and 400 mM ethylenediaminetetraacetic acid (EDTA) were diluted into the phosphate buffer to generate the working solution as background. A mixture of working solution (ThT final concentration: 10 μM), Aβ1-42 stock solution (Aβ1-42 final concentration: 10 μM) and the tested compounds were incubated on BioShake iQ ThermoMixer (37°C, 700 rpm) for 24 h. Fluorescence was measured by Victor 2X microplate spectrophotometer (excitation λ = 440 nm, emission λ = 486 nm), and adapted for 96-well microtiter plates. The fluorescence intensities were recorded and the percent inhibition due to the presence of the inhibitors were calculated by the following formula: (1 - IFi/IFc) × 100% where IFi and IFc were the fluorescence intensities obtained for Aβ1-42 in the presence and in the absence of inhibitors after subtracting the background, respectively. The IC50 values were calculated by the linear regression model of the data. All experiments were performed in triplicate.

Structure (SMILES)	Cell viability of SH-SY5Y cells [1]	Viability of primary rat mesencephalic neurons [2]	IC50 [3]	inhibition at 10 µM [3]
C[n+]1ccc(-c2ccccc2)cc1.[I-] [1-methyl-4-phenylpyridinium iodide]	80%	roughly 75%	–	–
O=c1c(O)c(-c2ccc(O)cc2O)oc2cc(O)cc(O)c12 [Morin, morin, reference compound]	–	–	8.8 ± 0.7 µM	56.9 ± 5.9%
O=C(CCCCCCC(=O)Nc1ccccc1)NO [SAHA, suberoylanilide hydroxamic acid, reference compound]	–	–	> 10 µM	-13.3 ± 1.8%
